Literature values, collected in patent US20210330900A1, “TARGETED ADMINISTRATION TO THE OROPHARYNX OF VISCOUS OR DRY POWDER FLUTICASONE PROPIONATE AND RELATED CORTICOSTEROIDS FOR THE TREATMENT OF EOSINOPHILIC ESOPHAGITIS (EoE)” (Topical Sinus Therapeutics, Inc., priority 2020, published 2021).

gastrointestinal absorption (compared with other corticosteroids): exceptionally low
drug inactivated by 1st pass hepatic metabolism (into a single inactive metabolite, after gastrointestinal absorption): 99%
Structure (SMILES): C[C@@H]1C[C@H]2[C@@H]3C[C@H](F)C4=CC(=O)C=C[C@]4(C)[C@@]3(F)[C@@H](O)C[C@]2(C)[C@@]1(O)C(=O)SCF [Fluticasone]
